Experimental data taken from patent publication US5484772A, “Antithrombotic agents” (Eli Lilly and Company, priority 1994, dated 1996).

Assays:
Format in all cases: biochemical
[1] = molecular target: human thrombin (Homo sapiens, UniProt P00734); experiment: Thrombin amidase inhibition, chromogenic substrate (Kass); settings: apparent association constant, mean over a range of concentrations; Hydrochloride
Description: The assay is carried out by mixing 50 μl buffer (0.03M Tris, 0.15M NaCl, pH 7.4), 25 μl of human thrombin solution (purified human thrombin, Enzyme Research Laboratories, South Bend, Ind., at 8 NIH units/ml) and 25 μl of test compound in a solvent (in 50% aqueous methanol, v:v). Then 150 μl of an aqueous solution of the chromogenic substrate (at 0.25 mg/ml) are added and the rates of hydrolysis of the substrate are measured by monitoring the reactions at 405 nm for the release of p-nitroaniline. Standard curves are constructed by plotting free thrombin concentration against hydrolysis rate. The hydrolysis rates observed with test compounds are then converted to free thrombin values in the respective assays by use of the standard curves. The bound thrombin (bound to test compound) is calculated by subtracting the amount of free thrombin observed in each assay from the known initial amount of thrombin used in the assay. The amount of free inhibitor in each assay is calculated by subtracting the number of moles of bound thrombin from the number of moles of added inhibitor (test compound).
The Kass value is the hypothetical equilibrium constant for the reaction between thrombin and the test compound (I). [formula] Kass is calculated for a range of concentrations of test compounds and the mean value is reported in units of liter per mole.

[2] = molecular target: T1, Human factor Xa (Homo sapiens, UniProt P00742); experiment: Factor Xa amidase inhibition, chromogenic substrate (Kass); settings: apparent association constant; Hydrochloride
T1 construct: Human factors X, Xa, IXa, XIa, and XIIa are purchased; purchased Enzyme Research Laboratories, South Bend, Ind

[3] = molecular target: T2, Bovine trypsin (Bos taurus, UniProt P00760); experiment: Trypsin amidase inhibition, chromogenic substrate (Kass); settings: apparent association constant; Hydrochloride
T2 construct: purchased Worthington Biochemicals, Freehold, N.J
T2 sequence (P00760 24-246): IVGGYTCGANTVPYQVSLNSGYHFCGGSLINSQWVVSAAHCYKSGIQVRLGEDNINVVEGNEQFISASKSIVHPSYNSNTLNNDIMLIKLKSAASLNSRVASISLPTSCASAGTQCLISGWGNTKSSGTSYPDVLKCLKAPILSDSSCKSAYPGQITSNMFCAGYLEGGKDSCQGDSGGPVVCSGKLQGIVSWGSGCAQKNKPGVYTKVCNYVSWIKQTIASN

[4] = molecular target: T3, Human plasmin (Homo sapiens, UniProt P00747); experiment: Plasmin amidase inhibition, chromogenic substrate (Kass); settings: apparent association constant; Hydrochloride
T3 construct: Human plasmin is purchased from Boehringer Mannheim; purchased Boehringer Mannheim, Indianapolis, Ind

[5] = molecular target: T4, t-PA (Homo sapiens, UniProt P00750); experiment: t-PA amidase inhibition, chromogenic substrate (Kass); settings: apparent association constant; Hydrochloride
T4 construct: purchased American Diagnostica, Greenwich, Conn

[6] = system: Human plasma; experiment: Human plasma anticoagulation, thrombin time (TT); settings: concentration required to double thrombin time, linear extrapolation, Hydrochloride
Description: (§1) Dog plasma and rat plasma are obtained from conscious mixed-breed hounds (either sex, hazelton-LRE, Kalamazoo, Mich., U.S.A.) or from anesthetized male Sprague-Dawley rats (Harlan Sprague-Dawley, Inc., Indianapolis, Ind., U.S.A.) by venipuncture into 3.8 percent citrate. Fibrinogen is prepared from in-date ACD human blood as the fraction I-2 according to previous procedures and specifications. Smith, Blochem. J., 185, 1-11 (1980); and Smith, et al., Biochemistry, 11, 2958-2967 (1972). Human fibrinogen is also purchased as 98 percent pure/plasmin free from American Diagnostica, Greenwich, Conn. Coagulation reagents ACTIN, Thromboplastin, and Human plasma are from Baxter Healthcare Corp., Dade Division, Miami, Fla. Bovine thrombin from Parke-Davis (Ann Arbor, Mich.) is used for coagulation assays in plasma.
(§2) Coagulation assay procedures are as previously described. Smith, et al., Thrombosis Research, 50, 163-174 (1988). […] The prothrombin time (PT) is measured by adding 0.05 ml saline and 0.05 ml Thromboplastin-C reagent to 0.05 ml test plasma. The activated partial thromboplastin time (APTT) is measured by incubation of 0.05 ml test plasma with 0.05 ml Actin reagent for 120 seconds followed by 0.05 ml CaCl2 (0.02M). The thrombin time (TT) is measured by adding 0.05 ml saline and 0.05 ml thrombin (10 NIH units/ml) to 0.05 ml test plasma. […]

[7] = system: Human plasma; experiment: Human plasma anticoagulation, activated partial thromboplastin time (APTT); settings: concentration required to double APTT, linear extrapolation, Hydrochloride
Description: as §1, §2

[8] = system: Human plasma; experiment: Human plasma anticoagulation, prothrombin time (PT); settings: concentration required to double PT, linear extrapolation, Hydrochloride
Description: as §1, §2

T3 sequence (P00747 581-810 limits assumed): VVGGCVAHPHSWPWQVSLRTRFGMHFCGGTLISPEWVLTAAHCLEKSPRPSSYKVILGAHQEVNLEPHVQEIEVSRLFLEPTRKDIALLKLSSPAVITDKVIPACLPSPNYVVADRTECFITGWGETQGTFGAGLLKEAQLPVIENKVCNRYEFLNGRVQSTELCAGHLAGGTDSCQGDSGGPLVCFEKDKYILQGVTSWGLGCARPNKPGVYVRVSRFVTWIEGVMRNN
T3 sequence (P00747 97-580 limits assumed): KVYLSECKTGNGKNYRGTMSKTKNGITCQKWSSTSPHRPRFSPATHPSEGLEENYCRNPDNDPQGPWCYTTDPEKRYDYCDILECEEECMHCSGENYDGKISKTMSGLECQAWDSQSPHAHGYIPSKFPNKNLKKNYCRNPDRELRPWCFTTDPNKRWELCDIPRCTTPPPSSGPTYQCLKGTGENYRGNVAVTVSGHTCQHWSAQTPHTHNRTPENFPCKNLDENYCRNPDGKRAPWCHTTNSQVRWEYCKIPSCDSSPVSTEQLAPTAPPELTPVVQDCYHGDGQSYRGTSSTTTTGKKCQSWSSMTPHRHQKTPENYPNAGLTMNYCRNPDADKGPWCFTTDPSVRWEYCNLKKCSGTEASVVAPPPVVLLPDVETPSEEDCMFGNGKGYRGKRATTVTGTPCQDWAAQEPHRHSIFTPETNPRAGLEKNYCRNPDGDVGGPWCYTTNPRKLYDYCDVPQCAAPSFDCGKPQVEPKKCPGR
T4 sequence (P00750 36-562): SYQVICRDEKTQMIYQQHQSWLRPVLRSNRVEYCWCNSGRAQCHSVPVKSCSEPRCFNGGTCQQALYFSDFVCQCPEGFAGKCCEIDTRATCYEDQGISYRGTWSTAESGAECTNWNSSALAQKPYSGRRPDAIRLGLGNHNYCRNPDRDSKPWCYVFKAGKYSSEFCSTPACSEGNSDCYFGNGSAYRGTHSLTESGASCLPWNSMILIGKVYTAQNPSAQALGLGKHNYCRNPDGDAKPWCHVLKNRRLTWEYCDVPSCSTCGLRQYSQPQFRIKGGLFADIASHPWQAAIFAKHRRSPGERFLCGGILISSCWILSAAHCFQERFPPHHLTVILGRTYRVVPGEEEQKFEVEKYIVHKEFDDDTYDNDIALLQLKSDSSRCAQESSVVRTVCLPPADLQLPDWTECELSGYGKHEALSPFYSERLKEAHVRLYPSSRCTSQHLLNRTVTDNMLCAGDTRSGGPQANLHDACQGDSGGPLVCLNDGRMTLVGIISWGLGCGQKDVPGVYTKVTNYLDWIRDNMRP
T1 sequence (P00742 235-488 limits assumed): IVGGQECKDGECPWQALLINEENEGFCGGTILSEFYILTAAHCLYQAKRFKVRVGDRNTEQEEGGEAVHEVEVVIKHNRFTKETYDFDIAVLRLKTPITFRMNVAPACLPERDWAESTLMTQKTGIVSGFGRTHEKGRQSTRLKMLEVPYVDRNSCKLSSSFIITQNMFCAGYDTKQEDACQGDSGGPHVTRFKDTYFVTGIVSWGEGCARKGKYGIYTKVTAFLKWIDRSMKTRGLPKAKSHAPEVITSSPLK
T1 sequence (P00742 41-179 limits assumed): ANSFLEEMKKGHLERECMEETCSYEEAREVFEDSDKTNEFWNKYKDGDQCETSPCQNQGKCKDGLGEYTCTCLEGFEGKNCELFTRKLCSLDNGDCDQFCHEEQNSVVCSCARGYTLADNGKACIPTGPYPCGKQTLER

| SMILES | Kass Human Thrombin [1] [L/mol × 10^6] | Kass Xa [2] [L/mol × 10^6] | Kass Trypsin [3] [L/mol × 10^6] | Kass Plasmin [4] [L/mol × 10^6] | Kass t-PA [5] [L/mol × 10^6] | 2 × Clotting time TT [6] [ng/mL] | 2 × Clotting time APTT [7] | 2 × Clotting time PT [8] |
| --- | --- | --- | --- | --- | --- | --- | --- | --- |
| CCOC(=O)N[C@@H](Cc1ccccc1)C(=O)N1CCC[C@@]1(C)C(=O)N[C@H](C=O)CCCNC(=N)N.Cl [Example 5, N-Ethoxycarbonyl-L-phenylalanyl (αmethyl)-L-prolinyl-L-arginine Aldehyde Hydrochloride] | 75 | 0.044 | 2.4 | 0.059 | 0.00079 | 48 | 2,500 ng/mL | 2,200 ng/mL |
| CCOC(=O)NC(CC)(Cc1ccccc1)C(=O)N1CCC[C@H]1C(=O)N[C@H](C=O)CCCNC(=N)N.Cl (stereo partly drawn) [Example 13, N-Ethoxycarbonyl-L-phenylalanyl (αethyl)-L-prolinyl-L-arginine Aldehyde Hydrochloride] | 57 | 0.036 | 4.9 | 0.12 | 0.002 | 93 |  | 3,300 ng/mL |
